Like-named read-outs stand apart in the source and are kept apart here.
Experiments:
lambsquarters (CHEAL) = assay: Postemergence greenhouse trial, % visual injury on lambsquarters; format: in vivo, Chenopodium album
In short: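 Visual injury, 0 (none) to 100 (complete kill), rated 20-22 d after overhead track-sprayer application at 187 L/ha; Colby's equation gave expected mixture responses. Herbicide (g ae/ha) and cloquintocet-mexyl safener (g ai/ha) diluted in aqueous 1.5% v/v Agri-dex, applied to weeds at 2–3 true leaves.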

spring wheat (TRZAS) = assay: Postemergence greenhouse trial, % visual injury on spring wheat; format: in vivo, Triticum aestivum
In short: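 Injury was scored visually (0 = none, 100 = complete kill) 20–22 d after track-sprayer application at 187 L/ha, compared with solvent-sprayed controls. Test plants at the 2–3 true leaf stage; herbicide (g ae/ha) plus cloquintocet-mexyl safener (g ai/ha) in crop-oil-containing spray; expected mixture response by Colby.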

cornflower (CENCY) = assay: Postemergence greenhouse trial, % visual injury on cornflower; format: in vivo, Centaurea cyanus or Cyanus segetum; settings: CENCY; for % visual injury, Ob: CQC-m 0 g/ha
[1] = system: purple deadnettle (LAMPU); assay: Postemergence greenhouse trial, % visual injury on purple deadnettle; format: in vivo, Lamium purpureum; settings: LAMPU; for % visual injury, Ob: CQC-m 0
Method: Seeds of the desired test plant species were planted in Sun Gro MetroMix® 306 planting mixture, which typically has a pH of 6.0 to 6.8 and an organic matter content of about 30 percent, in plastic pots with a surface area of 103.2 square centimeters (cm^2). When required to ensure good germination and healthy plants, a fungicide treatment and/or other chemical or physical treatment was applied. The plants were grown for 7-36 days (d) in a greenhouse with an approximate 14-hour (h) photoperiod which was maintained at about 23° C. during the day and 22° C. during the night. Nutrients and water were added on a regular basis and supplemental lighting was provided with overhead metal halide 1000-Watt lamps as necessary. The plants were employed for testing when they reached the second or third true leaf stage.
Weighed amounts of technical material were dissolved in a volume of 97:3 volume per volume (v/v) acetone/dimethyl sulfoxide (DMSO) to stock solutions. […] The concentrated stock solutions were diluted with an aqueous mixture of 1.5% v/v of Agri-dex crop oil concentrate to provide the appropriate application rates. Compound requirements are based upon a 12 milliliter (mL) application volume at a rate of 187 liters per hectare (L/ha). Stocks solutions of the safeners were prepared following the same procedure. Spray solutions of the safeners and experimental compound mixtures were prepared by adding the stock solutions to the appropriate amount of dilution solution to form a 12 mL spray solution in two-way combinations. Formulated compounds were applied to the plant material with an overhead Mandel track sprayer equipped with 8002E nozzles calibrated to deliver 187 L/ha over an application area of 0.503 square meters (m^2) at a spray height of 18 inches (43 centimeters (cm)) above average plant canopy. Control plants were sprayed in the same manner with the solvent blank. All herbicide application (component a) rates are in g ae/ha and all safener (component b) rates are in g ai/ha.
The treated plants and control plants were placed in a greenhouse as described above and watered by sub-irrigation to prevent wash-off of the test compounds. After 20-22 d, the condition of the test plants as compared with that of the control plants was determined visually and scored on a scale of 0 to 100 percent where 0 corresponds to no injury and 100 corresponds to complete kill. […] Colby's equation was used to determine the herbicidal effects expected from the mixtures. […]

Russian thistle (SASKR) = assay: Postemergence greenhouse trial, % visual injury on Russian thistle; format: in vivo, Salsola kali; settings: SASKR
spring barley (HORVS) = assay: Postemergence greenhouse trial, % visual injury on spring barley; format: in vivo, Hordeum vulgare; settings: HORVS
In short: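 Greenhouse crops at second to third true leaf stage sprayed postemergence at 187 L/ha with herbicide (g ae/ha) plus safener (g ai/ha) in acetone/DMSO diluted into 1.5% v/v Agri-dex. Injury scored visually versus solvent-blank controls after 20-22 d, 0 (none) to 100% (complete kill); expected mixture effects by Colby's equation.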

[2] = compound 2 4.380 + CQC-m 0 g/ha
[3] = compound 4.375 g/ha, CQC-m 0 g/ha
[4] = compound 8.75 g/ha, CQC-m 0 g/ha
[5] = compound 17.5 g/ha, CQC-m 0 g/ha

## Nc1c(F)c(-c2ccc3cc[nH]c3c2F)nc(C(=O)OCc2ccccc2)c1Cl [compound 2]
Lambsquarters (CHEAL); CHEAL, compound 2 4.380 + CQC-m 0 g/ha
  % visual injury, observed (Ob): 85%
Lambsquarters (CHEAL); CHEAL, compound 2 8.75 + CQC-m 0 g/ha
  % visual injury, observed (Ob): 95%
Lambsquarters (CHEAL); CHEAL, compound 2 17.5 + CQC-m 0 g/ha
  % visual injury, observed (Ob): 97%
Lambsquarters (CHEAL); CHEAL, compound 2 35 + CQC-m 0 g/ha
  % visual injury, observed (Ob): 100%
Lambsquarters (CHEAL); CHEAL, compound 2 70 + CQC-m 0 g/ha
  % visual injury, observed (Ob): 100%
Lambsquarters (CHEAL); Chenopodium album, post-emergence, alone, 35 g/ha, read-out: % visual injury, Ob
  pest or weed control at 35 g/ha: 97%
Spring wheat (TRZAS); alone, 35 g/ha
  % visual injury, Ob: 15%
Cornflower (CENCY); [2]
  % visual injury, observed (Ob): 100%
Cornflower (CENCY); compound 2 8.75 + CQC-m 0 g/ha
  % visual injury, observed (Ob): 100%
Cornflower (CENCY); compound 2 17.5 + CQC-m 0 g/ha
  % visual injury, observed (Ob): 100%
Cornflower (CENCY); compound 2 35 + CQC-m 0 g/ha
  % visual injury, observed (Ob): 100%
Cornflower (CENCY); compound 2 70 + CQC-m 0 g/ha
  % visual injury, observed (Ob): 100%
[1]; [2]
  % visual injury, observed (Ob): 85%
[1]; compound 2 8.75 + CQC-m 0 g/ha
  % visual injury, observed (Ob): 93%
[1]; compound 2 17.5 + CQC-m 0 g/ha
  % visual injury, observed (Ob): 95%
[1]; compound 2 35 + CQC-m 0 g/ha
  % visual injury, observed (Ob): 100%
[1]; compound 2 70 + CQC-m 0 g/ha
  % visual injury, observed (Ob): 100%
Russian thistle (SASKR); [2]
  % visual injury, observed (Ob): 75%
Russian thistle (SASKR); compound 2 8.75 + CQC-m 0 g/ha
  % visual injury, observed (Ob): 85%
Russian thistle (SASKR); compound 2 17.5 + CQC-m 0 g/ha
  % visual injury, observed (Ob): 89%
Russian thistle (SASKR); compound 2 35 + CQC-m 0 g/ha
  % visual injury, observed (Ob): 92%
Russian thistle (SASKR); compound 2 70 + CQC-m 0 g/ha
  % visual injury, observed (Ob): 92%

## CCCCOC(=O)c1nc(-c2ccc3cc[nH]c3c2F)c(F)c(N)c1Cl [compound 9]
Lambsquarters (CHEAL); Chenopodium album, post-emergence, CHEAL, compound 4.380 g/ha, CQC-m 0, read-out: % visual injury, Ob
  pest or weed control at 4.38 g/ha: 85%
Lambsquarters (CHEAL); Chenopodium album, post-emergence, CHEAL, compound 8.75 g/ha, CQC-m 0, read-out: % visual injury, Ob
  pest or weed control at 8.75 g/ha: 80%
Lambsquarters (CHEAL); Chenopodium album, post-emergence, CHEAL, compound 17.5 g/ha, CQC-m 0, read-out: % visual injury, Ob
  pest or weed control at 17.5 g/ha: 95%
Lambsquarters (CHEAL); Chenopodium album, post-emergence, CHEAL, compound 35 g/ha, CQC-m 0, read-out: % visual injury, Ob
  pest or weed control at 35 g/ha: 100%
Lambsquarters (CHEAL); Chenopodium album, post-emergence, CHEAL, compound 70 g/ha, CQC-m 0, read-out: % visual injury, Ob
  pest or weed control at 70 g/ha: 100%
Spring wheat (TRZAS); TRZAS, compound 4.380 g/ha, CQC-m 0
  % visual injury, Ob: 10%
Spring wheat (TRZAS); TRZAS, compound 8.75 g/ha, CQC-m 0
  % visual injury, Ob: 25%
Spring wheat (TRZAS); TRZAS, compound 17.5 g/ha, CQC-m 0
  % visual injury, Ob: 30%
Spring wheat (TRZAS); TRZAS, compound 35 g/ha, CQC-m 0
  % visual injury, Ob: 50%
Spring wheat (TRZAS); TRZAS, compound 70 g/ha, CQC-m 0
  % visual injury, Ob: 60%
Spring barley (HORVS); compound 4.380 g/ha, CQC-m 0
  % visual injury, Ob: 10%
Spring barley (HORVS); compound 8.75 g/ha, CQC-m 0
  % visual injury, Ob: 20%
Spring barley (HORVS); compound 17.5 g/ha, CQC-m 0
  % visual injury, Ob: 30%
Spring barley (HORVS); compound 35 g/ha, CQC-m 0
  % visual injury, Ob: 40%
Spring barley (HORVS); compound 70 g/ha, CQC-m 0
  % visual injury, Ob: 50%
[1]; compound 4.380 g/ha
  % visual injury, Ob: 83%
[1]; compound 8.75 g/ha
  % visual injury, Ob: 90%
[1]; compound 17.5 g/ha
  % visual injury, Ob: 100%
[1]; compound 35 g/ha
  % visual injury, Ob: 100%
[1]; compound 70 g/ha
  % visual injury, Ob: 100%
Russian thistle (SASKR); compound 4.380 g/ha, CQC-m 0
  % visual injury, Ob: 65%
Russian thistle (SASKR); compound 8.75 g/ha, CQC-m 0
  % visual injury, Ob: 70%
Russian thistle (SASKR); compound 17.5 g/ha, CQC-m 0
  % visual injury, Ob: 80%
Russian thistle (SASKR); compound 35 g/ha, CQC-m 0
  % visual injury, Ob: 85%
Russian thistle (SASKR); compound 70 g/ha, CQC-m 0
  % visual injury, Ob: 87%

## COc1c(C(=O)O)nc(-c2ccc3cc[nH]c3c2F)c(F)c1N [compound 13]
Spring wheat (TRZAS); TRZAS, compound 4.375 g/ha, CQC-m 0 g/ha
  % visual injury, Ob: 40%
Spring wheat (TRZAS); TRZAS, compound 8.75 g/ha, CQC-m 0 g/ha
  % visual injury, Ob: 53%
Spring wheat (TRZAS); TRZAS, compound 17.5 g/ha, CQC-m 0 g/ha
  % visual injury, Ob: 67%
Spring wheat (TRZAS); TRZAS, compound 35 g/ha, CQC-m 0 g/ha
  % visual injury, Ob: 80%
Spring wheat (TRZAS); TRZAS, compound 70 g/ha, CQC-m 0 g/ha
  % visual injury, Ob: 87%
Cornflower (CENCY); compound 4.375 g/ha
  % visual injury, Ob: 100%
Cornflower (CENCY); compound 8.75 g/ha
  % visual injury, Ob: 100%
Cornflower (CENCY); compound 17.5 g/ha
  % visual injury, Ob: 100%
Cornflower (CENCY); compound 35 g/ha
  % visual injury, Ob: 100%
Cornflower (CENCY); compound 70 g/ha
  % visual injury, Ob: 100%
Spring barley (HORVS); [3]
  % visual injury, Ob: 30%
Spring barley (HORVS); [4]
  % visual injury, Ob: 38%
Spring barley (HORVS); [5]
  % visual injury, Ob: 55%
Spring barley (HORVS); compound 35 g/ha, CQC-m 0 g/ha
  % visual injury, Ob: 64%
Spring barley (HORVS); compound 70 g/ha, CQC-m 0 g/ha
  % visual injury, Ob: 73%
Russian thistle (SASKR); [3]
  % visual injury, Ob: 50%
Russian thistle (SASKR); [4]
  % visual injury, Ob: 65%
Russian thistle (SASKR); [5]
  % visual injury, Ob: 77%
Russian thistle (SASKR); compound 35 g/ha, CQC-m 0 g/ha
  % visual injury, Ob: 83%
Russian thistle (SASKR); compound 70 g/ha, CQC-m 0 g/ha
  % visual injury, Ob: 91%
